{"source": "patent US9399032B2", "about": "“Methods and compositions for treating degenerative and ischemic disorders” (The General Hospital Corporation, priority 2009, dated 2016)", "test_system": "C2C12 myotubes", "assay": "[3H]-2-deoxyglucose uptake", "type": "cell-based", "conditions": "50 micromolar, four hours", "description": "Fully differentiated C2C12 myotubes were subjected to a glucose uptake protocol, as follows. Briefly, C2C12 myotube cells were incubated for four hours in serum-free media containing either 0.1% DMSO as a control, 50 micromolar meclizine, 50 micromolar S-meclizine, or 2 mM metformin. Cells were subsequently incubated for thirty minutes in serum and glucose free buffer and then transitioned to buffer containing [3H]-2-deoxyglucose for five minutes. After multiple wash steps, cells were lysed and the lysate was subjected to scintillation counting to quantify uptake. Data were prepared as raw counts per minute, which is proportional to 2-deoxyglucose uptake.", "note": "Where a name gives a salt, the structure may show the parent alone."}
{"compound": "Cc1cccc(CN2CCN(C(c3ccccc3)c3ccc(Cl)cc3)CC2)c1", "note": "(racemic) [Meclizine, meclizine hydrochloride]", "values": [{"measurement": "basal glucose uptake", "value": "promoted increased basal glucose uptake"}]}
